From patent publication US20230322788A1, “IMIDAZOTRIAZINE AND PYRROLOPYRIMIDINE DERIVATIVES AS KRAS G12C INHIBITORS” (BeiGene, Ltd., priority 2020, published 2023) come the findings set out here.

Chain of KRAS (aa 1-169) G12C, C51S, C80L, C118S (P01116 other isoform, or with tags, fused parts or gaps G12C/C51S/C80L/C118S): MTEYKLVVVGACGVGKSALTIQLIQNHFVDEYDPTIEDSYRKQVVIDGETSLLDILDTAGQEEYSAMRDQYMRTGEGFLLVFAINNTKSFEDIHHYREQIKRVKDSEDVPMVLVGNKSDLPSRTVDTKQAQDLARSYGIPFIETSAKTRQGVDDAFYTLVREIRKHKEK

The first test has as its target KRAS (aa 1-169) G12C, C51S, C80L, C118S (Homo sapiens (Human), UniProt P01116, C118S/C51S/C80L/G12C). Nature of the test: KRAS G12C SOS1-mediated nucleotide exchange / cRaf RBD binding FRET assay (Biochemical Functional Assay). Conditions: GDP-loaded KRAS G12C pre-incubated with compound at 24° C. for 3 hrs; SOS1, GTPγS, GST-cRaf RBD; inhibition of nucleotide exchange. As to the method: The KRAS ([…]) G12C, C51S, C80L, C118S with a His-tag was expressed, purified and loaded with GDP in house. All protein and substrate solutions were prepared in assay buffer containing 25 mM HEPES pH7.5, 10 mM MgCl2, and 0.01% Triton X-100. Purified GDP-loaded KRAS (aa 1-169) G12C, C51S, C80L, C118S protein was pre-incubated with a serially diluted compound at 24° C. for 3 hrs. Purified SOS1 (aa 564-1049) protein, GTPYS (Sigma) and GST-cRaf RBD (aa 1-149) were then added to each well and incubated at 24° C. for additional 3 hrs. […] Following the incubation, Mab Anti-6HIS-Tb cryptate (Cisbio) and Mab Anti GST-XL665 (Cisbio) were added and further incubated at 24° C. for 3 hrs. The binding interaction between active GTPγS KRAS G12C and GST-cRaf RBD brings the Tb and XL665 into close proximity enabling an increased FRET signal (Ex337 nm, Em665 nm/620 nm). The inhibition percentage of nucleotide exchange reaction in presence of increasing concentrations of compounds was calculated based on the ratio of fluorescence at 665 nm to that at 620 nm detected on a BMG PHERAstar FSX instrument. The IC50 value of each compound was calculated from fitting the data to the four-parameter logistic model by Dotmatics.
On to `C=CC(=O)N1CCN(c2nc(OC[C@@H]3CCCN3C)nn3c(Cc4cccc5ccccc45)cnc23)CC1` [Compound A1, (S)-1-(4-(2-((1-methylpyrrolidin-2-yl)methoxy)-7-(naphthalen-1-ylmethyl)imidazo[2,1-f][1,2,4]triazin-4-yl)piperazin-1-yl)prop-2-en-1-one], for which the IC50 (usually the midpoint of a concentration-inhibition curve) was determined as 3.28 µM.

Take `C=CC(=O)N1CCN(c2nc(OC[C@@H]3CCCN3C)nn3c(Cc4cc(O)cc5ccccc45)cnc23)CC1` [Compound A2, (S)-1-(4-(7-((3-hydroxynaphthalen-1-yl)methyl)-2-((1-methylpyrrolidin-2-yl)methoxy)imidazo[2,1-f][1,2,4]triazin-4-yl)piperazin-1-yl)prop-2-en-1-one]: the IC50 was 0.427 µM. On the same count and under the same terms, the figure for `C=CC(=O)N1CCN(c2nc(OC[C@@H]3CCCN3C)nn3c(Cc4cccc5ccccc45)cnc23)C[C@@H]1CC#N` [Compound A4, 2-((S)-1-acryloyl-4-(2-(((S)-1-methylpyrrolidin-2-yl)methoxy)-7-(naphthalen-1-ylmethyl)imidazo[2,1-f][1,2,4]triazin-4-yl)piperazin-2-yl)acetonitrile] is 0.0467 µM. With `C=CC(=O)N1CCN(c2nc(OC[C@@H]3CCCN3C)nn3c(Cc4cc(O)cc5ccccc45)cnc23)C[C@@H]1CC#N` [Compound A5, 2-((S)-1-acryloyl-4-(7-((3-hydroxynaphthalen-1-yl)methyl)-2-(((S)-1-methylpyrrolidin-2-yl)methoxy)imidazo[2,1-f][1,2,4]triazin-4-yl)piperazin-2-yl)acetonitrile], the IC50 is 0.029 µM. With `C=CC(=O)N1CCN(c2nc(OC[C@@H]3CCCN3C)nn3c(Cc4cccc5cccc(Cl)c45)cnc23)C[C@@H]1CC#N` [Compound A6, 2-((S)-1-acryloyl-4-(7-((8-chloronaphthalen-1-yl)methyl)-2-(((S)-1-methylpyrrolidin-2-yl)methoxy)imidazo[2,1-f][1,2,4]triazin-4-yl)piperazin-2-yl)acetonitrile], the IC50 amounted to 0.1 µM. `C=CC(=O)N1CCN(c2nc(OC[C@@H]3CCCN3C)nn3c(Cc4cccc5cccc(C)c45)cnc23)C[C@@H]1CC#N` [Compound A7, 2-((S)-1-acryloyl-4-(7-((8-methylnaphthalen-1-yl)methyl)-2-(((S)-1-methylpyrrolidin-2-yl)methoxy)imidazo[2,1-f][1,2,4]triazin-4-yl)piperazin-2-yl)acetonitrile]: the IC50 was found to be 0.0478 µM. On to `C=CC(=O)N1CCN(c2nc(OC[C@@H]3CCCN3C)nn3c(Cc4ccc5ccccc5c4)cnc23)C[C@@H]1CC#N` [Compound A8, 2-((S)-1-acryloyl-4-(2-(((S)-1-methylpyrrolidin-2-yl)methoxy)-7-(naphthalen-2-ylmethyl)imidazo[2,1-f][1,2,4]triazin-4-yl)piperazin-2-yl)acetonitrile], for which the IC50 stood at 7.7 µM. `C=CC(=O)N1CCN(c2nc(OC[C@@H]3CCCN3C)nn3c(Cc4cccc5c4CCO5)cnc23)C[C@@H]1CC#N` [Compound A9, 2-((S)-1-acryloyl-4-(7-((2,3-dihydrobenzofuran-4-yl)methyl)-2-(((S)-1-methylpyrrolidin-2-yl)methoxy)imidazo[2,1-f][1,2,4]triazin-4-yl)piperazin-2-yl)acetonitrile]: the IC50 was 1.06 µM.

On to `C=CC(=O)N1CCN(c2nc(OC[C@@H]3CCCN3C)nn3c(Cc4ccc(OC)c5ccccc45)cnc23)C[C@@H]1CC#N` [Compound A10, 2-((S)-1-acryloyl-4-(7-((4-methoxynaphthalen-1-yl)methyl)-2-(((S)-1-methylpyrrolidin-2-yl)methoxy)imidazo[2,1-f][1,2,4]triazin-4-yl)piperazin-2-yl)acetonitrile], for which the IC50 came out at 0.187 µM. For the compound `C=CC(=O)N1CCN(c2nc(OC[C@@H]3CCCN3C)nn3c(Cc4c(F)cccc4Cl)cnc23)C[C@@H]1CC#N` [Compound A11, 2-((S)-1-acryloyl-4-(7-(2-chloro-6-fluorobenzyl)-2-(((S)-1-methylpyrrolidin-2-yl)methoxy)imidazo[2,1-f][1,2,4]triazin-4-yl)piperazin-2-yl)acetonitrile], the IC50 was 0.215 µM.

For `C=CC(=O)N1CCN(c2nc(OC[C@@H]3CCCN3C)nn3c(Cc4ccccc4Cl)cnc23)C[C@@H]1CC#N` [Compound A12, 2-((S)-1-acryloyl-4-(7-(2-chlorobenzyl)-2-(((S)-1-methylpyrrolidin-2-yl)methoxy)imidazo[2,1-f][1,2,4]triazin-4-yl)piperazin-2-yl)acetonitrile], the IC50 came to 0.217 µM. Consider `C=CC(=O)N1CCN(c2nc(OC[C@@H]3CCCN3C)nn3c(Cc4cccc5c4OCC5)cnc23)C[C@@H]1CC#N` [Compound A13, 2-((S)-1-acryloyl-4-(7-((2,3-dihydrobenzofuran-7-yl)methyl)-2-(((S)-1-methylpyrrolidin-2-yl)methoxy)imidazo[2,1-f][1,2,4]triazin-4-yl)piperazin-2-yl)acetonitrile], for which the IC50 turned out to be 0.101 µM. With `C=CC(=O)N1CCN(c2nc(OC[C@@H]3CC(F)(F)CN3C)nn3c(Cc4cccc5ccccc45)cnc23)C[C@@H]1CC#N` [Compound A14, 2-((S)-1-acryloyl-4-(2-(((S)-4,4-difluoro-1-methylpyrrolidin-2-yl)methoxy)-7-(naphthalen-1-ylmethyl)imidazo[2,1-f][1,2,4]triazin-4-yl)piperazin-2-yl)acetonitrile], the half-maximal inhibitory concentration (IC50) was determined as 0.506 µM.

On to `C=CC(=O)N1CCN(c2nc(OC[C@@H]3CCCN3C)nn3c(Cc4cccc5[nH]ncc45)cnc23)C[C@@H]1CC#N` [Compound A15, 2-((S)-4-(7-((1H-indazol-4-yl)methyl)-2-(((S)-1-methylpyrrolidin-2-yl)methoxy)imidazo[2,1-f][1,2,4]triazin-4-yl)-1-acryloylpiperazin-2-yl)acetonitrile], for which the IC50 worked out at 1.18 µM. On to `C=CC(=O)N1CCN(c2nc(OC[C@@H]3CCCN3C)nn3c(Cc4cccc5ccccc45)cnc23)[C@@H](C)C1` [Compound A17, 1-((S)-3-methyl-4-(2-(((S)-1-methylpyrrolidin-2-yl)methoxy)-7-(naphthalen-1-ylmethyl)imidazo[2,1-f][1,2,4]triazin-4-yl)piperazin-1-yl)prop-2-en-1-one], for which the IC50 came to 2.93 µM. Take `C=CC(=O)N1CCN(c2nc(OC[C@@H]3CCCN3C)nn3c(Cc4ccccc4C(F)(F)F)cnc23)C[C@@H]1CC#N` [Compound A18, 2-((S)-1-acryloyl-4-(2-(((S)-1-methylpyrrolidin-2-yl)methoxy)-7-(2-(trifluoromethyl)benzyl)imidazo[2,1-f][1,2,4]triazin-4-yl)piperazin-2-yl)acetonitrile]: the IC50 came out at 0.235 µM. Same read-out and setting: the figure for `C=CC(=O)N1CCN(c2nc(OC[C@@H]3CCCN3C)nn3c(Cc4ccc(O)c5ccccc45)cnc23)C[C@@H]1CC#N` [Compound A19, 2-((S)-1-acryloyl-4-(7-((4-hydroxynaphthalen-1-yl)methyl)-2-(((S)-1-methylpyrrolidin-2-yl)methoxy)imidazo[2,1-f][1,2,4]triazin-4-yl)piperazin-2-yl)acetonitrile] is 0.0096 µM. The same measure, in the same setting: the figure for `C=CC(=O)N1CCN(c2nc(OC[C@@H]3CCCN3C)nn3c(Cc4c(O)cccc4F)cnc23)C[C@@H]1CC#N` [Compound A20, 2-((S)-1-acryloyl-4-(7-(2-fluoro-6-hydroxybenzyl)-2-(((S)-1-methylpyrrolidin-2-yl)methoxy)imidazo[2,1-f][1,2,4]triazin-4-yl)piperazin-2-yl)acetonitrile] is 0.0191 µM; for `C=CC(=O)N1CCN(c2nc(OC[C@@H]3CCCN3C)nn3c(Cc4c(O)ccc5ccccc45)cnc23)C[C@@H]1CC#N` [Compound A21, 2-((S)-1-acryloyl-4-(7-((2-hydroxynaphthalen-1-yl)methyl)-2-(((S)-1-methylpyrrolidin-2-yl)methoxy)imidazo[2,1-f][1,2,4]triazin-4-yl)piperazin-2-yl)acetonitrile] it is 0.0208 µM. Consider `C=CC(=O)N1CCN(c2nc(OC[C@@H]3CCCN3C)nn3c(C4CCc5ccccc54)cnc23)C[C@@H]1CC#N` (stereo partly drawn) [Compound A22, 2-((2S)-1-acryloyl-4-(7-(2,3-dihydro-1H-inden-1-yl)-2-(((S)-1-methylpyrrolidin-2-yl)methoxy)imidazo[2,1-f][1,2,4]triazin-4-yl)piperazin-2-yl)acetonitrile], for which the IC50 came to 0.201 µM.

The same test, now with this note: same assay; the cell prints uM although the column head says nmol.
In turn, `C=CC(=O)N1CCN(c2nc(OC[C@@H]3CCCN3C)nn3c(-c4cc(OC)cc5ccccc45)cnc23)C[C@@H]1CC#N` [Compound A3, 2-((S)-1-acryloyl-4-(7-(3-methoxynaphthalen-1-yl)-2-(((S)-1-methylpyrrolidin-2-yl)methoxy)imidazo[2,1-f][1,2,4]triazin-4-yl)piperazin-2-yl)acetonitrile] showed an IC50 greater than 10 µM. Same read-out and setting: the figure for `C=CC(=O)N1CCN(c2nc(OC[C@@H]3CCCN3C)nn3c(Cc4cccc5[nH]ncc45)cnc23)C[C@@H]1CC(N)=O` [Compound A16, 2-((S)-4-(7-((1H-indazol-4-yl)methyl)-2-(((S)-1-methylpyrrolidin-2-yl)methoxy)imidazo[2,1-f][1,2,4]triazin-4-yl)-1-acryloylpiperazin-2-yl)acetamide] is greater than 10 µM.
